Test results as given in ChEMBL document CHEMBL1124195, “Substituted benzamides with conformationally restricted side chains. 2. Indolizidine derivatives as central dopamine receptor antagonists” (J Med Chem, 1988).
Activity calls are given as the source filed them. No cut-off for these calls is given here.

What was measured:
Mus musculus = experiment: Evaluated for the antagonism of apomorphine-induced climbing behavior in mice (sc); type: functional
Rattus norvegicus [1] = experiment: Evaluated for lowest active dose (LAD) for (gastric prokinetic activity) stimulation of intragastric pressure (IGP) in rats (sc); type: functional
Rattus norvegicus [2] = experiment: Evaluated for lowest active dose (LAD) for (gastric prokinetic activity) stimulation of intragastric pressure (IGP) in rats (sc); Inactive (0.5-10 mg/kg); type: functional, organism-based
D(2) dopamine receptor = D(2) dopamine receptor (Rattus norvegicus, UniProt P61169); experiment: Binding affinity against Dopamine receptor D2 at 10e-3 M concentration using [3H]spiperone in rat striatal tissue
Chain of D(2) dopamine receptor (P61169 whole entry): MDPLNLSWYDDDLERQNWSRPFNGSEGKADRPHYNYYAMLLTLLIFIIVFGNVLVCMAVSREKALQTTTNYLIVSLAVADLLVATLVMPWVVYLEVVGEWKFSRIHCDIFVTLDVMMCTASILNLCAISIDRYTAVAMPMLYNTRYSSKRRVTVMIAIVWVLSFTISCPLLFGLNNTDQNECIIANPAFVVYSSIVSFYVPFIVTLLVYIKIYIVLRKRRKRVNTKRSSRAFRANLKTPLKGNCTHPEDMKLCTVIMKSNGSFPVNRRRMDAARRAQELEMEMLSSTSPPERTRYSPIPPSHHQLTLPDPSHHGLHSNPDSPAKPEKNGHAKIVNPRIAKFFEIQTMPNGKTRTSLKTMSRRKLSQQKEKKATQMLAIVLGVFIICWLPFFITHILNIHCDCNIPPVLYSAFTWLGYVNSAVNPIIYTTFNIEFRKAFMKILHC

D(1A) dopamine receptor = D(1A) dopamine receptor (Rattus norvegicus, UniProt P18901); experiment: Binding affinity against Dopamine receptor D1 at 10e-3 M concentration using cis-[3H]flupenthixol in rat striatal tissue
Chain of D(1A) dopamine receptor (P18901 whole entry): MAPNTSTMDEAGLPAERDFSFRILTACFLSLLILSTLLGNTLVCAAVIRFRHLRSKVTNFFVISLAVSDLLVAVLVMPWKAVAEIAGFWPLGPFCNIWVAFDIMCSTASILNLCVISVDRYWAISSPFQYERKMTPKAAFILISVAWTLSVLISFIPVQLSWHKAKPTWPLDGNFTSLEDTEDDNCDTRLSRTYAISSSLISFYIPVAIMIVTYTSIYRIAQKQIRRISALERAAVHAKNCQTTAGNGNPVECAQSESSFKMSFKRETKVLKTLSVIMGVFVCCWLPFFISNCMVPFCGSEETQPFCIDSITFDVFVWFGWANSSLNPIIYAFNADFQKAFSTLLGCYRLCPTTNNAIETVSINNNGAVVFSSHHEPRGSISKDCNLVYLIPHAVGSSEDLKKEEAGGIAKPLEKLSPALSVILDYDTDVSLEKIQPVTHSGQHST

Rattus norvegicus [3] = experiment: Effective concentration for inhibition of amphetamine-induced locomotor activity in rats 4 hr after dosing administered intraperitoneally; type: functional; details: ip
Rattus norvegicus [4] = experiment: Compound was tested for inducing catalepsy 4 hr after dose administered intraperitoneally; type: functional; details: ip

COc1cc(N)c(Cl)cc1C(=O)NC1CCN2C[C@H](c3ccccc3)CC2C1 (some centres undefined)
ED50 (Mus musculus): > 3 mg/kg | LAD (Rattus norvegicus [1]): 1 mg/kg

COc1cc(N)c(Cl)cc1C(=O)NC1CCN2C[C@@H](c3ccccc3)CCC2C1 (some centres undefined)
ED50 (Mus musculus): > 1 mg/kg | LAD (Rattus norvegicus [2]): inactive

CCN(CC)CCNC(=O)c1cc(Cl)c(N)cc1OC [METOCLOPRAMIDE]
ED50 (Mus musculus): 0.75 mg/kg | LAD (Rattus norvegicus [1]): 1 mg/kg

COc1cc(N)c(Cl)cc1C(=O)NC1CCN2CC(c3ccc(F)cc3)CC2C1 (centres undefined)
ED50 (Mus musculus): 0.015 mg/kg

COc1cc(N)c(Cl)cc1C(=O)NC1CCN2C[C@@H](c3ccccc3)CC2C1 (some centres undefined)
ED50 (Mus musculus): 0.024 mg/kg | LAD (Rattus norvegicus [2]): inactive

COc1cc(N)c(Cl)cc1C(=O)NC1CCN2CC(c3ccccc3)(c3ccccc3)CC2C1 (centres undefined)
ED50 (Mus musculus): > 1 mg/kg | LAD (Rattus norvegicus [2]): inactive

COc1cc(N)c(Cl)cc1C(=O)NC1CCN2C[C@H](c3ccccc3)CCC2C1 (some centres undefined)
ED50 (Mus musculus): > 1 mg/kg | LAD (Rattus norvegicus [2]): inactive

COc1cc(N)c(Cl)cc1C(=O)NC1CCN(Cc2ccccc2)CC1 [CLEBOPRIDE]
ED50 (Mus musculus): 0.037 mg/kg | LAD (Rattus norvegicus [1]): 1 mg/kg

COc1cc(N)c(Cl)cc1C(=O)NC1CCN2CC(c3ccccc3F)CC2C1 (centres undefined)
ED50 (Mus musculus): 0.03 mg/kg

COc1cc(N)c(Cl)cc1C(=O)NC1CC(C)N2CC(c3ccccc3)CC2C1 (centres undefined)
ED50 (Mus musculus): 0.4 mg/kg | LAD (Rattus norvegicus [2]): inactive

COc1cc(N)c(Cl)cc1C(=O)NC1CCN2CC(C)(c3ccccc3)CC2C1 (centres undefined)
Ki (D(2) dopamine receptor): 250 nM | Ki (D(1A) dopamine receptor): > 10000 nM | ED50 (Mus musculus): 0.078 mg/kg | ED50 (Rattus norvegicus [3]): 0.02 mg/kg | ED50 (Rattus norvegicus [4]): 3.4 mg/kg | LAD (Rattus norvegicus [2]): inactive
